Results: patent EP1202959B1, “AMINOBENZOPHENONES AS INHIBITORS OF IL-1-BETA AND TNF-ALPHA” (LEO PHARMA A/S, priority 1999, dated 2001)

Key:
Type in all cases: cell-based
IL-1β = test: Inhibition of IL-1β secretion in LPS stimulated peripheral blood mononuclear cells (ELISA); conditions: PBMC; LPS stimulated human peripheral blood mononuclear cells; compounds added 30 minutes before LPS; incubated 18 hours; read-out: The median inhibition concentration (IC50, nM) of IL-1β
Description: (§1) To study the effect of the compound of the present invention in vitro the inhibition of the IL-1β and TNF-α secretion was measured using the following procedure:
(§2) Cytokine production was measured in the media from lipopolysaccharide (LPS) stimulated peripheral blood mononuclear cells. The mononuclear cells were isolated from human peripheral blood by Lymphoprep® (Nycomed, Norway) fractionation and suspended in RPMI 1640 (growth medium) with foetal calv serum (FCS, 2%), at a concentration of 5 x 10^5 cells/ml. The cells were incubated in 24-well tissue culture plates in 1 ml aliquots. Test compounds were dissolved in dimethylsulfoxide (DMSO, 10 mM) and were diluted with the medium. Compounds were added to the cells for 30 minutes, then LPS ([…] final concentration) was added. The plates were incubated for 18 hours, and the concentration of IL-1β and TNF-α in the medium was determined by enzyme-linked immunosorbent assays. The median inhibitory concentrations (IC50) of the compounds were calculated.

TNF-α = test: Inhibition of TNF-α secretion in LPS stimulated peripheral blood mononuclear cells (ELISA); conditions: PBMC; LPS stimulated human peripheral blood mononuclear cells; compounds added 30 minutes before LPS; incubated 18 hours; read-out: The median inhibition concentration (IC50, nM) of TNF-α
Description: as §1, §2

[1] = tested on: Human polymorphonuclear (PMN) granulocytes; test: Inhibition of PMN superoxide secretion (superoxide dismutase inhibitable reduction of ferricytochrome C); conditions: human PMN granulocytes primed with TNF-α (3 ng/ml), stimulated with fMLP (10^-7 M); read-out: The median inhibition concentration (IC50, nM) of PMN-superoxide
Description: The compounds of the present invention also show similar activities in the ability to inhibit PMN (polymorphonuclear) superoxide secretion which is also indicative of potentially useful anti-inflammatory drugs. The compounds were tested using the following procedure: Human polymorphonuclear (PMN) granulocytes were isolated from human blood by dextran sedimentation, Lymphoprep® fractionation and hypotonic lysis of contaminating erythrocytes. Superoxide anion generation was measured as the superoxide dismutase inhibitable reduction of ferricytochrome C (Madhu, S.B. et al, Inflammation, 16, 241, (1992)). The cells were suspended in Hanks' balanced salt solution, and incubated for 10 minutes at 37°C with test compounds. The cells were primed by the addition of TNF-α (3 ng/ml final concentration) for 10 minutes, and then ferricytochrome C, (final concentration 750µg/ml), bovine serum albumin (BSA, final concentration 1 mg/ml) and formyl-methionyl-leucyl-phenylalanine (fMLP, final concentration 10^-7 M) were added for 3 minutes. The cells were chilled on ice, and were spun down. The optical densities in the cell-free supernatant was measured in a spectrophotometer. The median inhibitory concentration (IC50) of the compounds was calculated.

SMILES | IC50 (IL-1β) [nM] | IC50 (TNF-α) [nM] | IC50 [1] [nM]
CC(=O)OCOC(=O)Nc1ccccc1Nc1ccc(C(=O)c2ccccc2C)c(Cl)c1 [Compound 109, 1-Acetoxymethyl N-[2-[3-chloro-4-(2-methylbenzoyl)-phenylamino]phenyl]carbamate] | 32 | 6.3 | 40
Cc1ccccc1C(=O)c1ccc(Nc2ccccc2N)cc1Cl [ref. a), 4-(2-Aminophenylamino)-2-chloro-2'-methylbenzophenone] | 13 | 7.1 | 5
Cc1ccccc1C(=O)c1ccc(Nc2ccccc2NC(=O)Oc2ccccc2)cc1Cl [Compound 105, Phenyl N-[2-[3-chloro-4-(2-methylbenzoyl)-phenylamino]phenyl]carbamate] | 50 | 10 | 100
CCOC(=O)Nc1ccccc1Nc1ccc(C(=O)c2ccccc2C)c(Cl)c1 [ref. b), Ethyl N-[2-[3-chloro-4-(2-methylbenzoyl)-phenylamino]phenyl]carbamate] | 32 | 5 | 5
